As a reminder, the EC50 is the midpoint of the concentration-response curve. A higher EC50 goes with a less potent agent. For orientation: chromatographic logD means lipophilicity estimated from chromatographic retention. Read a high chromatographic logD as higher lipophilicity. For orientation: Solubility means how much of the substance goes into solution per volume. High values mean much dissolved substance, low ones little dissolved substance.

In brackets after ≈: the same amount, converted by molar mass. Several values for one entry are separate records, joined by “and”; a condition that tells them apart may be missing. Equal values may be shown once. Read-outs that look alike come from different tables or passages of the source.

One data set can be described thus: CHI Log D procedure. The format is physicochemical. The note with it: for CHI Log D: pH 7.4; for chromatographic logD: pH 7.4, CHI Log D.
Data set [1] concerns the target T1, full-length B-Catenin (Uniprot ID P35222) (Homo sapiens, UniProt P35222).
T1 construct: 65 nM full-length B-Catenin (Uniprot ID P35222)
T1 sequence (P35222 1-781): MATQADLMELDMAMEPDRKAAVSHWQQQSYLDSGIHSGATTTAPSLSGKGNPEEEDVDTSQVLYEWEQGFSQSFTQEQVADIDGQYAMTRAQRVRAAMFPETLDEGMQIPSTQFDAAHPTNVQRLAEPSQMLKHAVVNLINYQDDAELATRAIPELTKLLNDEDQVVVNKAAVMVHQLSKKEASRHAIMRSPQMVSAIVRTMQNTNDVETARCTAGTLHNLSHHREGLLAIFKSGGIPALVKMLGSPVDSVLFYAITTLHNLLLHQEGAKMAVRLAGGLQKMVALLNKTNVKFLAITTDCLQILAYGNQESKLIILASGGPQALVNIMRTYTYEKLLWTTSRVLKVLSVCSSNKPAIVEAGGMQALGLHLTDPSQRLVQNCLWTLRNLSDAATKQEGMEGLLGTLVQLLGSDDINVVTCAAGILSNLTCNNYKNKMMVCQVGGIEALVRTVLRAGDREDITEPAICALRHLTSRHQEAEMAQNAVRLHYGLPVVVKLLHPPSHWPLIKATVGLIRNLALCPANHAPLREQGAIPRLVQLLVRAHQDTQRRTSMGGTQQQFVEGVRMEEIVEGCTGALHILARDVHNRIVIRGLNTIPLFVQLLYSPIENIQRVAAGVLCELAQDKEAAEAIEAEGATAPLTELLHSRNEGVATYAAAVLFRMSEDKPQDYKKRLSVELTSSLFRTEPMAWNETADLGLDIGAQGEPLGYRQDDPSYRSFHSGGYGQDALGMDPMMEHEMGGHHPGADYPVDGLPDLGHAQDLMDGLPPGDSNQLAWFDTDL
Put plainly: Alphascreen binding assay (beta-catenin / biotin-TCF4 10-53). On the procedure: In some embodiments, an assay is an Alphascreen binding assay. A useful protocol is described below as an example.
Alphascreen binding assay: Using the AlphaScreen Histidine (Nickel Chelate) Detection Kit (PerkinElmer), peptide solutions were prepared in buffer (50 mM Tris pH 8.0, 250 mM NaCl, 2% glycerol, 0.03% Tween-20, 0.01% TritonX-100, 0.1% BSA w/v) using a 3-fold serial dilution from 10 uM to 5 nM. Probe solution (65 nM full-length B-Catenin (Uniprot ID P35222), mixed with 10 nM biotin labeled TCF4 residues 10-53 (Uniprot ID Q9NQB0) peptide in buffer) was prepared and 4 uL per well was plated in a white polystyrene 384-well plate (Corning). Equal volume of the titrated peptide was added to the plate and incubated for 15 minutes at 20° C. Then 4 uL of donor and 4 uL acceptor beads at 10 ug/mL were added to the plate, for a 16 uL reaction pool and protected from light for 60 minutes at 20° C. prior to read. Reads were performed on a CLARIOstar plate reader (BMG Labtech) in duplicate, and data were fitted to a 1:1 binding model with hill slope using an in-house script. All provided concentrations are final concentrations.
For orientation: In Alpha technology, singlet oxygen from a donor bead excites a nearby acceptor bead.

A short description of a further data set: Solubility in PBS. Type of data set: physicochemical. The method, boiled down: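 PBS sample ultracentrifuged; supernatant run on HPLC vs. 50 μM peptide in DMSO standard. Solubility = (PBS peak area / DMSO peak area) × 50 uM.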
Data set [2] has as its target T2, beta-catenin/TCF4 engagement (Homo sapiens, UniProt P35222).
T2 construct: expressed in transfected cells; host or cells: HEK293
T2 sequence (P35222 1-781): T1 sequence (P35222 1-781)
Put plainly: Nano-BRET target engagement assay (B-cat-Halo & TCF4-Luc in HEK293 cells). The note with it: read-out: NanoBRET Abs IC50. Type of data set: cell-based. (Bioluminescence resonance energy transfer reports proximity on the nanometre scale.)

The test system of data set [3] is TCF/LEF luciferase Reporter in DLD1 cells. Put plainly: TCF reporter assay (DLD1 TCF/LEF luciferase reporter, Bright-Glo). Type of data set: cell-based. The note with it: for IC50: absolute IC50, read-out: DLD1 reporter assay Abs IC50; for DLD1 TCF c2 BrightGlo % Inhibition: replicates. Summed up: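 Readouts: Bright-Glo luciferase for reporter signal and CellTiter-Glo for cell viability, with absolute IC50 derived. The reporter clone came from lentiviral TCF/LEF-luciferase transduction of DLD1 cells, seeded 5000 cells/well in RPMI with 4% FBS and exposed overnight to serially diluted compounds.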

The target in data set [4] is T3, full-length beta-Catenin (Uniprot ID P35222) (Homo sapiens, UniProt P35222).
T3 construct: 10 nM full-length beta-Catenin (Uniprot ID P35222)
T3 sequence (P35222 1-781): T1 sequence (P35222 1-781)
Put plainly: Fluorescence polarization IC50 (beta-catenin / 5FAM-TCF4 10-53 competition). Type of data set: binding. (In general: Fluorescence polarisation rises when a labelled molecule tumbles more slowly, as on binding a larger partner.)

As to `CC(=O)N[C@@H](Cc1ccccc1)C(=O)N[C@@H](CC(=O)O)C(=O)N[C@@H](C)C(=O)N[C@]1(C)CCCCCCC=CCOC(=O)N2CC[C@@](C(=O)N[C@@H](CC3CCCC3)C(=O)N[C@@H](Cc3c[nH]c4ccccc34)C(=O)N[C@@H](CCC(N)=O)C(N)=O)(C2)NC(=O)[C@H](C(C)C)NC(=O)[C@H](Cc2ccccc2)NC(=O)[C@H](C)NC(=O)[C@H](C)NC(=O)[C@H](CC(=O)O)NC(=O)[C@H](CC(=O)O)NC1=O` (single isomer, unassigned) [I-94, Ac-Phe-Asp-Ala-R8-Asp-Asp-Ala-Ala-Phe-Val-PyrS-CypA-Trp-Gln-NH2], the “CHI Log D” value in the data set “CHI Log D procedure” was found to be 1.409. The EC50 in data set [1] amounted to 7.01 µM.
Regarding `CC(=O)N[C@@H](Cc1ccccc1)C(=O)N[C@@H](CC(=O)O)C(=O)N[C@@H](C)C(=O)N[C@]1(C)CCCCCCC=CCOC(=O)N2CC[C@@](C(=O)N[C@@H](Cc3ccccc3)C(=O)N[C@@H](Cc3c[nH]c4ccccc34)C(=O)N[C@@H](CCC(N)=O)C(N)=O)(C2)NC(=O)[C@H](C(C)C)NC(=O)[C@H](Cc2ccccc2)NC(=O)[C@H](C)NC(=O)[C@H](C)NC(=O)[C@H](CCCC(=O)O)NC(=O)[C@H](CC(=O)O)NC1=O` [I-6, Ac-Phe-Asp-Ala-R8-Asp-Aad-Ala-Ala-Phe-Val-PyrS-Phe-Trp-Gln-NH2], in “CHI Log D procedure”, the “CHI Log D” value is 1.378. For the same compound, the EC50 in data set [1] was determined as 6.5 µM.
With `CC(=O)N[C@@H](Cc1ccccc1)C(=O)N[C@@H](CC(=O)O)C(=O)N[C@@H](C)C(=O)N[C@]1(C)CCCC=CCOC(=O)N(C)CCC[C@@](C)(C(=O)N[C@@H](Cc2ccccc2)C(=O)N[C@@H](Cc2c[nH]c3ccccc23)C(=O)N[C@@H](CCC(N)=O)C(N)=O)NC(=O)[C@H](C(C)C)NC(=O)[C@H](Cc2ccccc2)NC(=O)[C@H](C)NC(=O)[C@H](C)NC(=O)[C@H](CC(=O)O)NC(=O)[C@H](CC(=O)O)NC1=O` [I-25, Ac-Phe-Asp-Ala-R5-Asp-Asp-Ala-Ala-Phe-Val-SeN-Phe-Trp-Gln-NH2], the chromatographic logD in “CHI Log D procedure” was 1.17. The compound further showed an EC50 in data set [1] of 7.22 µM.
On to `CC(=O)N[C@@H](Cc1ccccc1)C(=O)N[C@@H](CC(=O)O)C(=O)N[C@@H](C)C(=O)N[C@]1(C)CCCCCC=CCOC(=O)N2CC[C@@](C(=O)N[C@@H](Cc3ccccc3)C(=O)N[C@@H](Cc3c[nH]c4ccccc34)C(=O)N[C@@H](CCC(N)=O)C(N)=O)(C2)NC(=O)[C@H](C(C)C)NC(=O)[C@H](Cc2ccccc2)NC(=O)[C@H](C)NC(=O)[C@H](C)NC(=O)[C@H](CC(=O)O)NC(=O)[C@H](CC(=O)O)NC1=O` [I-30, Ac-Phe-Asp-Ala-R7-Asp-Asp-Ala-Ala-Phe-Val-PyrS-Phe-Trp-Gln-NH2], for which the “CHI Log D” value in the data set “CHI Log D procedure” was found to be 1.228. A half-maximal response in data set [1] (EC50) required 8.82 µM.
In the same order, the values of `CC(=O)N[C@@H](Cc1ccccc1)C(=O)N[C@@H](CC(=O)O)C(=O)N[C@@H](C)C(=O)N[C@]1(C)CCCCCC=CCOC(=O)N2CC[C@@](C(=O)N[C@@H](Cc3ccccc3)C(=O)N[C@@H](Cc3c[nH]c4ccccc34)C(=O)N[C@@H](CCC(N)=O)C(N)=O)(C2)NC(=O)[C@H](C(C)C)NC(=O)[C@H](Cc2ccccc2)NC(=O)[C@H](C)NC(=O)[C@H](C)NC(=O)[C@H](CC(=O)O)NC(=O)[C@H](CC(=O)O)NC1=O` [I-31, Ac-Phe-Asp-Ala-R7-Asp-Asp-Ala-Ala-Phe-Val-PyrS-Phe-Trp-Gln-NH2] are 1.245 and 7.22 µM.
`COc1ccc(C[C@@H]2NC(=O)[C@H](C)NC(=O)[C@H](C)NC(=O)[C@H](CCC(=O)O)NC(=O)[C@H](CC(=O)O)NC(=O)C3(CCCC=CCCCCCC[C@@](C)(C(=O)N[C@@H](Cc4ccccc4)C(=O)N[C@@H](Cc4c[nH]c5ccccc45)C(=O)N[C@@H](CCC(N)=O)C(N)=O)NC(=O)[C@H](C(C)C)NC2=O)CCCC=CC[C@]2(CCCN2C(C)=O)C(=O)N[C@@H](CC(=O)O)C(=O)N[C@@H](C)C(=O)N3)cc1` (stereo partly drawn) [I-218, Ac-PL3-Asp-Ala-B5-Asp-Glu-Ala-Ala-MeTyr-Val-S8-Phe-Trp-Gln-NH2] registered an EC50 in data set [1] of 0.09 µM.
Turning to `CC(=O)N1CCC[C@]12CC=CCCCC1(CCCC=CCCCOC(=O)N3CC[C@@](C(=O)N[C@@H](Cc4ccccc4Cl)C(=O)N[C@@H](Cc4csc5ccccc45)C(=O)N[C@H](CO)[C@@H](C)O)(C3)NC(=O)[C@H](CC(N)=O)NC(=O)[C@H](Cc3ccccc3)NC(=O)[C@H](C)NC(=O)[C@H](C)NC(=O)[C@H](CC(=O)O)NC(=O)[C@H](CC(=O)O)NC1=O)NC(=O)[C@H](CC(C)(C)C)NC(=O)[C@H](CC(=O)O)NC2=O` (stereo partly drawn) [I-1082, Ac-PL3-Asp-Npg-B5-Asp-Asp-Ala-Ala-Phe-Asn-PyrS2-2C1F-BztA-Thro1], in the data set “Solubility in PBS” (Solubility (uM)), the Solubility was 48 µM (≈ 91.5 µg/mL). For the same compound, the IC50 was determined as 14.1 µM in data set [2] (absolute IC50), 4.8 µM in data set [3] and 5 nM in data set [4] (read-out: beta-Catenin FP IC50). In “CHI Log D procedure”, the chromatographic logD was determined as 2.33. Also, the “DLD1 TCF c2 BrightGlo % Inhibition” value in data set [3] (first dose = 20 uM (plate map), 20 µM) was 76.5% and 77.1% and 79.9%; in data set [3] (0.625 µM) it was 14.1% and 17.4% and 20.3%; in data set [3] (1.25 µM), 14.0% and 21.5% and 24.0%; in data set [3] (2.5 µM), 17.3% and 36.1% and 37.9%; in data set [3] (10 µM), 63.9% and 71.0% and 75.0%; in data set [3] (third dose = 5 uM (plate map), 5 µM), 38.5% and 56.2% and 62.0%.
For `CC(=O)N1CCC[C@]12CC=CCCCC1(CCCC=CCCCCCC[C@@](C)(C(=O)N[C@@H](Cc3ccccc3Cl)C(=O)N[C@@H](Cc3csc4ccccc34)C(=O)N[C@@H](CCC(N)=O)C(N)=O)NC(=O)[C@H]([C@@H](C)O)NC(=O)[C@H](Cc3ccccc3)NC(=O)[C@H](C)NC(=O)[C@H](C)NC(=O)[C@H](CC(=O)O)NC(=O)[C@H](CC(=O)O)NC1=O)NC(=O)[C@H](CC(C)(C)C)NC(=O)[C@H](CC(=O)O)NC2=O` (stereo partly drawn) [I-1087, Ac-PL3-Asp-Npg-B5-Asp-Asp-Ala-Ala-Phe-Thr-S8-2C1F-BztA-Gln-NH2], in “Solubility in PBS”, the “Solubility” value is 44 µM (≈ 83.2 µg/mL). The IC50 was 9.3 µM in data set [2] (absolute IC50); 9.3 µM in data set [2]; above 20 µM in data set [3]; 9 nM in data set [4] (fluorescence polarization, beta-catenin, read-out: FP EC50); 9 nM in data set [4] (read-out: beta-Catenin FP IC50). In the data set “CHI Log D procedure”, the “CHI Log D” value is 2.766.
In “Solubility in PBS” (Solubility (uM)), `CC(=O)N1CCC[C@]12CC=CCCCC1(CCCC=CCCCCCC[C@@](C)(C(=O)N[C@@H](Cc3ccccc3Cl)C(=O)N[C@@H](Cc3csc4ccccc34)C(=O)N[C@@H](C(N)=O)[C@H](C)O)NC(=O)[C@H](CC(C)C)NC(=O)[C@H](Cc3ccccc3)NC(=O)[C@H](C)NC(=O)[C@H](C)NC(=O)[C@H](CC(=O)O)NC(=O)[C@H](CC(=O)O)NC1=O)NC(=O)[C@H](CC(C)(C)C)NC(=O)[C@H](CC(=O)O)NC2=O` (stereo partly drawn) [I-1097, Ac-PL3-Asp-Npg-B5-Asp-Asp-Ala-Ala-Phe-Leu-S8-2C1F-BztA-dThr-NH2] gave a Solubility of 20 µM (≈ 37.5 µg/mL). Besides, the IC50 in data set [2] (absolute IC50) is above 20 µM; in data set [3] it was above 20 µM; in data set [4] (read-out: beta-Catenin FP IC50), 40 nM. This compound yielded a chromatographic logD in the data set “CHI Log D procedure” of 3.61.
